Results on 51 molecules are retold here after ChEMBL document CHEMBL1201862, “PubChem BioAssay data set” (2004).

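Step 1: Grow cells in 96-well plates. Step 2: Expose to compound for 48 hours at 5 concentrations. Step 3: Interpolate endpoints linearly; if unreached, use highest concentration. GI50: concentration for 50% inhibition of growth.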 Active and inactive are the calls of the source. Cut-off read from the data, not from the text of the source: active = GI50 up to about 1.1 µM and inactive = higher. Residues, ends and D or L forms follow the SMILES beside them. Groups on a side chain read outwards from the residue. *: point of attachment. Cbz = O=C(OCc1ccccc1)*; Boc = CC(C)(C)OC(=O)* Some results are limits rather than exact numbers.

Some test systems named below: MDA-N; T47D; Hs-578T; DMS-273; KM-20L2; DMS-114; XF498.
Holding throughout (experiment): NCI tumour cell line growth inhibition, 48 h

With `CC1=NNC(=O)C1C1C=C(c2c[nH]c3ccccc23)OC1=O` (centres undefined), the GI50 in the test with MDA-N, with T47D and in the test with Hs-578T was > 100 µM (inactive) throughout.
Regarding `O=C1c2ccccc2-c2nc(-c3cccs3)cc3c2c1nc1ccccc13`, the GI50 is 6.97 µM (inactive) in the test with MDA-N and 21.3 µM (inactive) in the test on Hs-578T.
In the case of `Nc1ncnc2c1ncn2C1C=CC(COS(N)(=O)=O)C1` (centres undefined), the GI50 with MDA-N is 22.5 µM (inactive); with T47D, 8.81 µM (inactive); with Hs-578T, 15.6 µM (inactive).
As for `CCOC(=O)C1C(=O)CC(C)(O)C(C(=O)OCC)C1c1ccc(N(C)C)cc1` (centres undefined), the GI50 in the test on T47D was > 100 µM (inactive).
As for `Cc1cc(C)c2c(O)cc(-c3cccc(Cl)c3)nc2n1`, the GI50 was 0.0138 µM (active) in the test with MDA-N and 0.252 µM (active) in the test with Hs-578T.
Take `O=CNNC(=O)Nc1cccc2ccccc12`: the GI50 with T47D and with Hs-578T was > 100 µM (inactive) each time.
As for `Cc1[nH]c2ccccc2c1C1Cc2ccccc2N1C(=O)/C=C/C=C/c1ccccc1` (centres undefined), the GI50 in the test on DMS-273, in the test on KM-20L2 and in the test on DMS-114 was > 100 µM (inactive) in each case.
Turning to `COc1ccc(N2C(=O)/C(=C\c3cccc(Oc4ccccc4)c3)S(=O)(=O)C2c2ccccc2)cc1` (centres undefined), the figures for the GI50 in the test with MDA-N and with T47D were 19.1 µM (inactive) and 35.6 µM (inactive), respectively.
For the molecule `CCC1c2[nH]c3ccccc3c2C[C@H]2C(=O)NC(Cc3ccccc3)C(=O)N12` (some centres undefined), the GI50 in the test on MDA-N was 25.8 µM (inactive); with T47D, 22 µM (inactive); in the test with Hs-578T it was 12.4 µM (inactive).
On to `O=C1c2cccc(O)c2C(=O)c2c(O)cccc21` [DANTHRON], for which the GI50 in the test on DMS-273 is 31.6 µM (inactive); in the test on XF498, > 100 µM (inactive); with KM-20L2 it was 99.1 µM (inactive); with DMS-114, 38 µM (inactive).
On to `COC(=O)C1=COc2c(n(C)c3ccccc23)-c2ccccc21`, for which the GI50 with MDA-N, in the test with T47D and in the test with Hs-578T was > 100 µM (inactive) each time.
As for `COc1ccc2c(O)c(S(=O)(=O)c3ccc(C)cc3)c(=O)oc2c1OC`, the GI50 with MDA-N, in the test with T47D and with Hs-578T was > 100 µM (inactive) throughout.
As for `N/C1=C/C(=O)NC(=O)c2c(c3ccccc3oc2=O)C1`, the GI50 with MDA-N, in the test with T47D and in the test with Hs-578T was > 100 µM (inactive) each time.
Take `CC(C)NCCC(O)c1cc2ccccc2o1` (centres undefined): the GI50 in the test with MDA-N, in the test with T47D and in the test on Hs-578T was > 100 µM (inactive) each time.
For the molecule `CS(=O)(=O)CCC1CCC(=O)O1` (centres undefined), the GI50 is > 100 µM (inactive) in the test with T47D and 49 µM (inactive) in the test with Hs-578T.
Take `C=C(C)CN(CC#N)CC(=C)C`: the GI50 with MDA-N is > 100 µM (inactive); with T47D, > 100 µM (inactive); with Hs-578T, 83.2 µM (inactive).
As to `CS(=O)(=O)c1ccc(C2=C(c3ccccc3)C(=O)OC2)cc1` [ROFECOXIB], the GI50 in the test with MDA-N, with T47D and in the test on Hs-578T was > 100 µM (inactive) each time.
As to `O=C(CSC1=NC(=O)C2(NN1)c1ccccc1-c1ccccc12)NC(=S)Nc1ccccc1`, the results for the GI50 in the test on MDA-N and with T47D were > 10 µM (inactive) and 2.34 µM (inactive), respectively.
For the molecule `COc1nc(O)nc2c1C(c1ccc([N+](=O)[O-])cc1)c1c(OC)nc(O)nc1O2`, the GI50 with MDA-N and with Hs-578T was > 100 µM (inactive) throughout.
Take `CC[C@@]1(C)CCC2c3ccc(O)cc3CC[C@H]2C1C` (some centres undefined): the GI50 in the test with MDA-N is 13.1 µM (inactive); in the test with T47D it was 18.1 µM (inactive); in the test on Hs-578T it was 18.8 µM (inactive).
For `CC(C)(C)OC(=O)NC(CCCCNC(=O)CNC(=O)OCc1ccccc1)C(=O)NC(CCCCNC(=O)CNC(=O)OCc1ccccc1)C(=O)NC(CCCCNC(=O)CNC(=O)OCc1ccccc1)C(=O)NC(CCCCNC(=O)CNC(=O)OCc1ccccc1)C(=O)O` (centres undefined) (Boc-K([Gly-Cbz])K([Gly-Cbz])K([Gly-Cbz])K([Gly-Cbz])-OH; configuration not given here), the GI50 in the test on MDA-N and in the test on T47D was > 100 µM (inactive) in each case.
For `COc1cccc(OCC(=N/NC(=O)c2ccncc2)/N=C/c2cccnc2)c1`, the GI50 in the test with MDA-N, in the test on T47D and with Hs-578T was > 100 µM (inactive) in each case.
As for `Cc1nnc2n1-c1ccccc1-c1[nH]c3ccccc3c1C2`, the GI50 was 61.1 µM (inactive) with MDA-N, > 100 µM (inactive) in the test on T47D and > 100 µM (inactive) in the test on Hs-578T.
Turning to `CC(C)(C)/C(=N\Nc1nc2ccccc2[nH]1)c1ccccn1`, the GI50 in the test on MDA-N was > 100 µM (inactive); with T47D it was 21 µM (inactive); with Hs-578T it was > 100 µM (inactive).
Regarding `COC1CC(n2cnc3c(N)ncnc32)OC1CO` (centres undefined), the GI50 in the test on DMS-273, in the test with XF498, in the test with KM-20L2 and in the test with DMS-114 was > 100 µM (inactive) each time.
Consider `OCc1ccccc1O[C@H]1O[C@H](CO)[C@@H](O)[C@H](O)[C@H]1O`, for which the GI50 in the test on MDA-N, in the test on T47D and in the test on Hs-578T was > 100 µM (inactive) throughout.
Consider `C[C@]12CC[C@@H]3c4ccc(O)cc4CC[C@H]3[C@@H]1CC[C@@H]2OC(=O)CCc1ccccc1`, for which the figures for the GI50 in the test on MDA-N, in the test on T47D and in the test on Hs-578T were 7.46 µM (inactive), 17.7 µM (inactive) and 5.14 µM (inactive), respectively.
For `COC(=O)N/N=C(\C)C(CN1CCOCC1)C(c1ccccc1)c1cc2ccccc2oc1=O` (centres undefined), the GI50 in the test on T47D and in the test with Hs-578T was > 100 µM (inactive) each time.
Take `CCCC(=O)N[C@@H](Cc1cc(I)c(O)c(I)c1)C(=O)NCCCNCCCCNCCCNC(=O)[C@@H](N)CCCN=C(N)N`: the GI50 with DMS-273 was 27.4 µM (inactive); in the test with XF498 it was > 100 µM (inactive); in the test on KM-20L2, > 100 µM (inactive); in the test with DMS-114, > 100 µM (inactive).
For `CCCCCCCC/C=C\CCCCCCC(F)C(=O)O` (centres undefined), the GI50 in the test on MDA-N, with T47D and in the test on Hs-578T was > 12.5 µM (inactive) each time.
As for `CC(=O)CC(=O)ON(C)C(C)=O`, the GI50 with DMS-273, with XF498, in the test with KM-20L2 and in the test with DMS-114 was > 100 µM (inactive) throughout.
`OC(c1cc2ccc(C(F)(F)F)cc2c2cc(C(F)(F)F)ccc12)C1CCCCN1` (centres undefined): the figures for the GI50 in the test with MDA-N, in the test with T47D and with Hs-578T were 1.75 µM (inactive), 1.87 µM (inactive) and 1.9 µM (inactive), respectively.
In the case of `Clc1cc(Cl)c2cc3cccc[n+]3cc2c1Cl`, the GI50 with MDA-N was 16.5 µM (inactive); with T47D, 7.64 µM (inactive); in the test with Hs-578T, 18.1 µM (inactive).
With `O=C(Nc1nc(C23CC4CC(CC(C4)C2)C3)cs1)c1c(O)c2ccccc2[nH]c1=O`, the GI50 in the test on MDA-N and in the test on Hs-578T was > 100 µM (inactive) throughout.
`S=C(/N=c1\sc(NCc2ccccc2)nc2sc3c(c12)CCN(N1CCc2c(sc4nc(NCc5ccccc5)s/c(=N\C(=S)NCc5ccccc5)c24)C1)C3)NCc1ccccc1`: the GI50 in the test on MDA-N was 42.5 µM (inactive); in the test with T47D, 21.2 µM (inactive); in the test on Hs-578T, 54.3 µM (inactive).
`Cc1nc2c(=S)n(C)ncc2[nH]1`: the GI50 with MDA-N and with T47D was > 100 µM (inactive) each time.
For `COC(=O)/C=C(/C(=O)OC)c1c(C)cc2c(C)cc(C)cc(C)c1-2`, the GI50 in the test on MDA-N is 2.4 µM (inactive); in the test on T47D it was 44.1 µM (inactive); in the test on Hs-578T, 11 µM (inactive).
Consider `C[C@]12C(=O)OC[C@H](c3ccccc3)N1C(=O)N(Cc1ccccc1)[C@@H]2CO`, for which the GI50 in the test with MDA-N and with Hs-578T was > 100 µM (inactive) throughout.
Regarding `CCc1cc2c(oc3cc(C)ccc32)c(=O)n1C`, the GI50 in the test with MDA-N, with T47D and in the test with Hs-578T was > 10 µM (inactive) throughout.
Regarding `CCOC(=O)C(C(=O)c1ccccc1C(=O)OC)=P(c1ccccc1)(c1ccccc1)c1ccccc1`, the GI50 in the test on MDA-N, in the test on T47D and in the test on Hs-578T was > 10 µM (inactive) each time.
Turning to `CC(=O)OCC1(C)C(O)CCC2(C)C1CCC1CC3CC12CCC3(O)CO` (centres undefined), the GI50 with MDA-N is > 100 µM (inactive); with T47D, > 100 µM (inactive); with Hs-578T, > 53.6 µM (inactive).
With `O=C(OCCN=C1c2ccccc2CCc2ccccc21)c1cc([N+](=O)[O-])cc([N+](=O)[O-])c1`, the GI50 in the test with MDA-N and in the test on Hs-578T was > 31.6 µM (inactive) throughout.
Turning to `c1ccc(Cc2cccc3cc(-c4ccc(-c5ccccc5)cc4)[nH]c23)cc1`, the GI50 with MDA-N was > 100 µM (inactive); in the test with T47D, > 100 µM (inactive); in the test on Hs-578T it was 14.7 µM (inactive).
Consider `Cc1cc(N(CCC#N)CCC#N)ccc1/C=C(\NC(=O)/C=C/c1ccccc1)C(=O)N=[N+]=[N-]`, for which the GI50 in the test on DMS-273 was > 100 µM (inactive); with XF498, 28.5 µM (inactive); with KM-20L2, > 100 µM (inactive); in the test with DMS-114, > 100 µM (inactive).
In the case of `C[N+](C)(C)CCN[N+]1(C)CCCc2ccccc21` (centres undefined), the GI50 in the test with MDA-N is > 100 µM (inactive); with T47D it was 36.5 µM (inactive); in the test on Hs-578T it was > 100 µM (inactive).
In the case of `Cc1c(C(=O)c2ccc(N)c3ccccc23)c2ccccc2n1CCN1CCOCC1`, the GI50 was 16.3 µM (inactive) with MDA-N, 31.5 µM (inactive) in the test with T47D and 0.759 µM (active) with Hs-578T.
For `COc1c(N2CCCCC2)c2c(=O)c3ccccc3oc2c2c3ccccc3n(C)c12`, the GI50 is 38.1 µM (inactive) in the test with MDA-N and > 100 µM (inactive) with Hs-578T.
With `COC1(OC)CC(CO)(CNc2nc(N)nc(Cl)c2/C=N\O)C1`, the GI50 is 63.2 µM (inactive) in the test on MDA-N and 22.7 µM (inactive) in the test on Hs-578T.
As to `CCC1(O)C(=O)OCc2c1cc1n(c2=O)Cc2cc3cc(N)ccc3nc2-1` (centres undefined), the GI50 is 0.0232 µM (active) in the test on MDA-N, < 0.01 µM (active) with T47D and 1.42 µM (inactive) with Hs-578T.
Regarding `COc1ncnc2c1cnn2Cc1cn(COCC(O)CO)nn1` (centres undefined), the GI50 with MDA-N and with T47D was > 100 µM (inactive) each time.
On to `Nc1ncnc2ccc(Sc3ccc4ncnc(N)c4c3)cc12`, for which the GI50 with T47D and with Hs-578T was > 100 µM (inactive) in each case.
